Tests used:
[1] = LNP size and polydispersity index (PDI) by dynamic light scattering; type: physicochemical; settings: LNP with cirRNA (SEQ ID NO: 1); for Size: in nm (unit assumed)
Procedure: (§1) Ionizable lipid, DSPC, Cholesterol and DMG-PEG 2000 were mixed at a molar ratio of 50:10:38.5:1.5 in absolute ethanol. Circular RNA and linear mRNA payloads were suspended in 25 mM Acetate Buffer (pH 4.5). To form LNPs, three volumes of luciferase encoding RNA, in the form of cirRNA (SEQ ID NO:1) and mRNA (SEQ ID NO:2) respectively, were mixed with one volume of lipids in ethanol solution by microfluidic mixing with the Nanoassemblr Ignite (Precision Nanosystems) at a flow rate of 12 ml/min. The molar ratio of ionizable lipid to ribonucleotide was 15 or 6. The final lipid concentration in solution ranged from 1.5 mM to 6 mM. After encapsulation, the particles were dialyzed twice against PBS.
(§2) The LNP size and polydispersity index (PDI), determined by dynamic light scattering (DLS), and zeta potential were measured by a Zetasizer machine (Malvern). RNA concentration and encapsulation efficacy were analyzed by the Quant-IT Ribogreen kit by calculating the percentage encapsulation at 100%−(RNA-LNPs/RNA-LNPs with Triton X-100).

[2] = LNP zeta potential (Zetasizer); type: physicochemical; settings: LNP with cirRNA (SEQ ID NO: 1)
Procedure: as §1, §2

[3] = RNA encapsulation efficacy by Quant-IT Ribogreen kit; type: physicochemical; settings: LNP with cirRNA (SEQ ID NO: 1)
Procedure: as §1, §2

[4] = system: Hep G2 cells; assay: In vitro expression of firefly-luciferase, Hep G2; type: cell-based; settings: cirRNA (SEQ ID NO: 1) LNPs; firefly-luciferase luminescence; Hep G2 cells
Procedure: (§3) RAW 264.7 and Hep G2 cells were transfected with 100 ng/mL of RNA-LNPs encoding for firefly-luciferase. At 72 hours post transfection, the cells were washed and lysed. The luciferase expression was determined in the cell lysates with the luciferase assay reagent kit (Promega), according to the kit protocol, luciferase activity was measured by a luminometer.

[5] = system: RAW 264.7 cells; assay: In vitro expression of firefly-luciferase, RAW 264.7; type: cell-based; settings: cirRNA (SEQ ID NO: 1) LNPs; firefly-luciferase luminescence; RAW 264.7 cells
Procedure: as §3

[6] = system: Hep G2 cells; assay: In vitro toxicity (CellTiter-Glo cell viability), Hep G2; type: cell-based; settings: cirRNA (SEQ ID NO: 1) LNPs; Hep G2 cells;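 further: percent of untreated cells luminescence signal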
Procedure: (§4) RAW 264.7 and Hep G2 cells were transfected with 1 μg/mL RNA-LNPs. At 72 hours post transfection, cell viability was determined with the CellTiter-Glo® reagent kit, according to the kit protocol, measured by a luminometer.
(§5) The cell viability was calculated according to the following formula: […]

[7] = system: RAW 264.7 cells; assay: In vitro toxicity (CellTiter-Glo cell viability), RAW 264.7; type: cell-based; settings: cirRNA (SEQ ID NO: 1) LNPs; RAW 264.7 cells;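 further: percent of untreated cells luminescence signal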
Procedure: as §4, §5

[8] = system: BALB/C mice; assay: In vivo expression, whole-body luminescence (IVIS); settings: cirRNA (SEQ ID NO: 1) LNPs, BALB/C mice
Procedure: 6-8 week old, female BALB/C mice were injected with 0.05 mg*kg-1 of RNA-LNPs encoding for firefly-luciferase by intravenous injection. At 6 hours post injection, animals were intraperitoneally injected with 15 mg/ml of Luciferin substrate and whole-body luminescence was determined by a bioluminescent in vivo imaging system (IVIS).

| SMILES | PDI [1] | Size [1] | Zeta (mV) [2] | Encapsulation Efficiency % [3] | In vitro Expression HepG2 [4] | In vitro Expression RAW [5] | In vitro Viability HepG2 [6] | In vitro Viability RAW [7] | In vivo Expression (Whole Body) [8] |
| --- | --- | --- | --- | --- | --- | --- | --- | --- | --- |
| CCCCCCCCC(CCCCCC)C(=O)OCCCCCCCCN(CCCCCCCCOC(=O)C(CCCCCC)CCCCCCCC)CCOC(=O)NCc1ccc(NC(=O)OC(C)(C)C)cc1 (stereo not shown) [Lipid 8, ((2-(((4-((tert-butoxycarbonyl)amino)benzyl)carbamoyl)oxy)ethyl)azanediyl)bis(octane-8,1-diyl) bis(2-hexyldecanoate)] | 0.162 | 80.1 | −20.4 mV | 84% | 2.33E+01 | 6.90E+01 | 110% | 105% | 9.52E+04 |
| CCCCC/C=C\C/C=C\CCCCCCCCN(CCCCCCCC/C=C\C/C=C\CCCCC)CCOC(=O)NCc1ccncc1 [Lipid 35, 2-(di((9Z,12Z)-octadeca-9,12-dien-1-yl)amino)ethyl (pyridin-4-ylmethyl)carbamate] | 0.115 | 116.3 | −6.298 mV | 71% | 2.82E+02 | 6.25E+03 | 103% | 108% | 1.16E+05 |
| CCCCC/C=C\C/C=C\CCCCCCCCN(CCCCCCCC/C=C\C/C=C\CCCCC)CCOC(=O)NCCN1CCOCC1 [Lipid 36, 2-(di((9Z,12Z)-octadeca-9,12-dien-1-yl)amino)ethyl (2-morpholinoethyl)carbamate] | 0.138 | 125.4 | −3.556 mV | 96% | 9.18E+04 | 2.03E+04 | 82% | 95% | 1.21E+05 |
| CCCCC/C=C\C/C=C\CCCCCCCCN(CCCCCCCC/C=C\C/C=C\CCCCC)CCOC(=O)NCCN1CCN(C)CC1 [Lipid 37, 2-(di((9Z,12Z)-octadeca-9,12-dien-1-yl)amino)ethyl (2-(4-methylpiperazin-1-yl)ethyl)carbamate] | 0.138 | 145.8 | 4.079 mV | 95% | 5.96E+05 | 1.98E+04 | 87% | 92% | 1.16E+05 |
| CCCCC/C=C\C/C=C\CCCCCCCCN(CCCCCCCC/C=C\C/C=C\CCCCC)CCOC(=O)NCc1ncc[nH]1 [Lipid 39, 2-(di((9Z,12Z)-octadeca-9,12-dien-1-yl)amino)ethyl ((1H-imidazol-2-yl)methyl)carbamate] | 0.07 | 169.5 | −3.335 mV | 91% | 8.11E+02 | 2.58E+03 | 90% | 96% | 1.15E+04 |
| CCCCC/C=C\C/C=C\CCCCCCCCN(CCCCCCCC/C=C\C/C=C\CCCCC)CCOC(=O)NCCN(C)C [Lipid 41, 2-(di((9Z,12Z)-octadeca-9,12-dien-1-yl)amino)ethyl (2-(dimethylamino)ethyl)carbamate] | 0.163 | 186 | 5.74 mV | 91% | 2.77E+01 | 1.12E+05 | 89% | 70% | 4.69E+04 |
| CCCCCCCCC(CCCCCC)C(=O)OCCCCCCCCN(CCCCCCCCCCC(=O)OCCCCCC)CCOC(=O)NCCN1CCN(C)CC1 (stereo not shown) [Lipid 46, hexyl 11-((8-((2-hexyldecanoyl)oxy)octyl)(2-(((2-(4-methylpiperazin-1-yl)ethyl)carbamoyl)oxy)ethyl)amino)undecanoate] | 0.088 | 137.6 | 3.255 mV | 100% | 3.70E+01 | 3.51E+02 | 102% | 99% | 1.92E+06 |
| CCCCC/C=C\C/C=C\CCCCCCCCN(CCCCCC(=O)OCC(CCCCCCCC)CCCCCCCCCC)CCOC(=O)NCCCN(C)C (stereo not shown) [Lipid 81, 2-octyldodecyl 2-methyl-11-((9Z,12Z)-octadeca-9,12-dien-1-yl)-7-oxo-8-oxa-2,6,11-triazaheptadecan-17-oate] | – | – | – | – | 6.71E+04 | 1.56E+03 | 121% | 107% | 1.15E+04 |
| CCCCC/C=C\C/C=C\CCCCCCCCN(CCCCCC(=O)OCC/C=C\CCCCC)CCOC(=O)NCc1ccncc1 [Lipid 99, (Z)-non-3-en-1-yl 6-(((9Z,12Z)-octadeca-9,12-dien-1-yl)(2-(((pyridin-4-ylmethyl)carbamoyl)oxy)ethyl)amino)hexanoate] | – | – | – | – | 1.13E+04 | 1.01E+04 | 78% | 137% | 5.53E+07 |
| CCCCCCCOC(=O)CCCCCCCCCN(CCCCCCCCCC(=O)OCCCCCCC)CCOC(=O)NCCN1CCCCC1 [Lipid 118, diheptyl 10,10′-((2-(((2-(piperidin-1-yl)ethyl)carbamoyl)oxy)ethyl)azanediyl)bis(decanoate)] | – | – | – | – | 1.43E+03 | 1.42E+04 | 19% | 8% | 7.90E+06 |
| CCCCCCOC(=O)CCCCCCCCCCN(CCCCCCCCCCC(=O)OCCCCCC)CCOC(=O)NCCN1CCOCC1 [Lipid 139, dihexyl 11,11′-((2-(((2-morpholinoethyl)carbamoyl)oxy)ethyl)azanediyl)diundecanoate] | – | – | – | – | 4.85E+01 | 1.64E+02 | 16% | 8% | 3.48E+06 |
| CCCCCCCCCCCOC(=O)CCCCCN(CCCCCC(=O)OCCCCCCCCCCC)CCOC(=O)NCCN1CCN(C)CC1 [Lipid 156, diundecyl 6,6′-((2-(((2-(4-methylpiperazin-1-yl)ethyl)carbamoyl)oxy)ethyl)azanediyl)dihexanoate] | – | – | – | – | 2.86E+04 | 1.67E+03 | 84% | 93% | 4.92E+04 |
| CCCCCCCCCCCOC(=O)CCCCCN(CCCCCCCC(=O)OC(CCCCCCCC)CCCCCCCC)CCOC(=O)NCCN1CCN(C)CC1 [Lipid 160, heptadecan-9-yl 8-((2-(((2-(4-methylpiperazin-1-yl)ethyl)carbamoyl)oxy)ethyl)(6-oxo-6-(undecyloxy)hexyl)amino)octanoate] | – | – | – | – | 6.38E+05 | 1.94E+04 | 94% | 93% | 4.44E+05 |
| CCCCCCCCCC(=O)OCCCCCCCN(CCCCCCCOC(=O)CCCCCCCCC)CCOC(=O)NCc1ncc[nH]1 [Lipid 176] | – | – | – | – | 6.28E+03 | 4.83E+04 | 88% | 93% | 1.31E+07 |
| CCCCC/C=C\CCOC(=O)CCCCCN(CCCCCCCCOC(=O)C(CCCCCC)CCCCCCCC)CCOC(=O)NCCN(C)C (stereo not shown) [Lipid 184] | – | – | – | – | 9.87E+04 | 1.93E+03 | 91% | 88% | 5.28E+07 |
